Measurements as given in patent US20240336617A1, “Substituted Bimane Compounds and Methods of Use Thereof” (THE TRUSTEES OF THE UNIVERSITY OF PENNSYLVANIA, priority 2023, published 2024).

Experiments:
[1] = Molar absorptivity determination; assay type: physicochemical;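 also: molar absorptivity derived from UV-Vis absorbance spectra recorded for each derivative on a spectrometer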
Procedure: The absorbance spectrum of each derivative (150 μL) was measured on a Thermo Scientific Genesys 150 UV-Vis spectrometer, using 50:50 ACN/PBS as a blank.
Molar absorptivity determination. […] The absorbance spectrum of each derivative (150 μL) was measured on a Thermo Scientific Genesys 150 UV-Vis spectrometer, using 50:50 ACN/PBS as a blank.

[2] = Fluorescent quantum yield (QY) measurements; assay type: physicochemical; settings: for Fluorescence QY: ACN/PBS buffer (1:1 v/v); for Fluorescence quantum yield: in ACN
Procedure: For each QY measurement, the incident excitation light spectrum was collected with 1 mL of solvent. […] Using the JASCO Quantum Yield Software, the dye QY was calculated by dividing the dye fluorescence intensity by the difference in incident light intensity in the presence and absence of dye. The minimum excitation wavelength for a full excitation incident spectrum using this setup is 360 nm.
Fluorescent quantum yield (QY) measurements. For each QY measurement, the incident excitation light spectrum was collected with 1 mL of solvent. After measuring the incident light intensity, dye (3 and 5a-5k) was added to the solvent from a concentrated stock solution to a final concentration of […] and the new spectrum (fluorescence intensity and new incident light intensity) was collected. Using the JASCO Quantum Yield Software, the dye QY was calculated by dividing the dye fluorescence intensity by the difference in incident light intensity in the presence and absence of dye. The minimum excitation wavelength for a full excitation incident spectrum using this setup is 360 nm.

[3] = Fluorescence (emission) measurements; assay type: physicochemical;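 also: fluorescence emission spectra recorded on a spectrofluorometer, with each compound excited at its own absorption maximum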
Procedure: The fluorescence spectrum of each derivative (150 μL) was measured on a Photon Technology International (PTI) QuantaMaster™ 40 fluorescence spectrometer by excitation at the maximum absorption wavelength for each compound.
The fluorescence spectrum of each derivative (150 μL) was measured on a Photon Technology International (PTJ) QuantaMaster™ 40 fluorescence spectrometer by excitation at the maximum absorption wavelength for each compound.

[4] = Absorbance measurements (UV-Vis); settings: for Abs. λabs: 25 μM; for Absorbance Wavelength: ACN:PBS buffer (50:50 v/v)
Procedure: Samples were individually diluted to the final concentration of 25 μM (500 μL) using 50:50 acetonitrile in phosphate buffered saline (ACN/PBS). The absorbance spectrum of each derivative (150 μL) was measured on a Thermo Scientific Genesys 150 UV-Vis spectrometer, using 50:50 ACN/PBS as a blank.

[5] = Fluorescence lifetime measurements (TCSPC); assay type: physicochemical; settings: for Lifetime: ACN/PBS buffer (50:50 v/v), excitation 340 nm
Procedure: Time correlated single photon counting (TCSPC) measurements of fluorescence lifetime decays for 100 μM solutions of dyes (6, 7c, 7e, 7f, and 7g) in ACN/PBS buffer (50:50 v/v) were collected with the PTI Quantamaster™ 40 using a pulsed LED with a maximum emission at 340 nm. Fluorescence emission was collected at the indicated wavelength for each dye with 20 nm slit widths. The instrument response function (IRF) was collected under identical conditions. Data analysis was performed with FluoFit software (PicoQuant GmbH; Berlin, Germany) using an exponential decay model.
Fluorescence lifetime measurements. Time correlated single photon counting (TCSPC) measurements of fluorescence lifetime decays for 100 μM solutions of dyes (3 and 5c-f) in ACN/PBS buffer (50:50 v/v) were collected with the PTI Quantamaster™ 40 using a pulsed LED with a maximum emission at 340 nm. Fluorescence emission was collected at the indicated wavelength for each dye with 20 nm slit widths. The instrument response function ([…]) was collected under identical conditions. Data analysis was performed with FluoFit software (PicoQuant GmbH; Berlin, Germany) using an exponential decay model. […] FIG. 64D Fluorescence spectra of 5i-5k. […] Fluorescence spectra were measured at their maximum absorption wavelength. FIGS. 66A-66K show representative QY acquisitions of 3 and 5a-f, 5h-k in ACN/PBS buffer (50:50). All had consistent excitation (360 nm) and spectral collection (350-800 nm) parameters. Final concentration of the probe is 500 μM. Black line indicates incident light and blue line indicates sample spectrum. […] All had consistent excitation (360 nm, slit width 10 nm) and spectral collection (350-800 nm) parameters. Final concentration of the probe is 500 µM. Black line indicates incident light and blue line indicates sample spectrum. FIG. 68: Effect of pH on absorption and emission of 5h and 5j. […] For pH screening of 5h and 5j, PBS buffer solutions were prepared, then adjusted the pH 2, 4, and 7 by adding 6 M hydrochloric acid, pH 9 and 11 by adding 5 M sodium hydroxide. Emission spectra were measured by the excitation wavelength 354 nm for 5h and 385 nm for 5j. […] Lifetime measurements with exponential fits shown at left and residuals after fitting shown at right.

[6] = ACN/PBS buffer (1:1 v/v), pH 7.4
[7] = in ACN, at maximum absorption wavelength
[8] = 25 μM in ACN/PBS buffer (1:1 v/v), pH 7.4

ε ([1]; ACN only) [M⁻¹ cm⁻¹]	ε ([1]; ACN:PBS (50:50 v/v)) [M⁻¹ cm⁻¹]	Q.Y. ([2]; ACN only) [%]	Q.Y. ([2]; ACN:PBS (50:50 v/v)) [%]	Stokes shift ([3]; ACN only) [nm]	Stokes shift ([3]; ACN:PBS (50:50 v/v)) [nm]	Abs. λabs ([4]; ACN only) [nm]	Abs. λabs ([4]; ACN:PBS (50:50 v/v)) [nm]	Molar Absorptivity (ε) [1, 6] [M⁻¹ cm⁻¹]	Molar Absorptivity (ε) [1, 7] [M⁻¹ cm⁻¹]	Fluorescence QY [2] [%]	Fluorescence quantum yield [2] [%]	Fluorescence quantum yield ([2]; Table S12) [%]	Emission λmax [3, 8] [nm]	Stokes shift ([3]; ACN/PBS buffer (1:1 v/v)) [nm]	Stokes shift ([3]; in ACN) [nm]	Absorbance λmax ([4]; 25 μM in ACN) [nm]	Absorbance λmax [4, 8] [nm]	Structure (SMILES)	also measured
29974	29304	0.4	0.16	195	192	339	344											Cc1c(C)n2c(/C=C/c3nc4ccccc4s3)c(C)c(=O)n2c1=O [Compound 8c, (E)-3-(2-(benzo[d]thiazol-2-yl)vinyl)-2,5,6-trimethyl-1H,7H-pyrazolo[1,2-a]pyrazole-1,7-dione]	
26667	27587	0.1	0.06	229	99	346	349											Cc1c(C)n2c(/C=C/c3nc4ccc([N+](=O)[O-])cc4s3)c(C)c(=O)n2c1=O [Compound 8a, (E)-2,3,6-trimethyl-5-(2-(6-nitrobenzo[d]thiazol-2-yl)vinyl)-1H,7H-pyrazolo[1,2-a]pyrazole-1,7-dione]	Em. λem ([3]; ACN:PBS (50:50 v/v), 25 μM): 448 nm
21094	20460	0.52	0.26	162	159	369	375											Cc1c(C)n2c(/C=C/c3nc4ccc(O)cc4s3)c(C)c(=O)n2c1=O [Compound 8e, (E)-3-(2-(6-hydroxybenzo[d]thiazol-2-yl)vinyl)-2,5,6-trimethyl-1H,7H-pyrazolo[1,2-a]pyrazole-1,7-dione]	
32612	31088	0.56	0.21	192	185	340	345											Cc1c(C)n2c(/C=C/c3nc4ccc(F)cc4s3)c(C)c(=O)n2c1=O [Compound 8b, (E)-3-(2-(6-fluorobenzo[d]thiazol-2-yl)vinyl)-2,5,6-trimethyl-1H,7H-pyrazolo[1,2-a]pyrazole-1,7-dione]	
22961	22575	0.54	0.27	163	157	367	373											COc1ccc2nc(/C=C/c3c(C)c(=O)n4c(=O)c(C)c(C)n34)sc2c1 [Compound 8d, (E)-3-(2-(6-methoxybenzo[d]thiazol-2-yl)vinyl)-2,5,6-trimethyl-1H,7H-pyrazolo[1,2-a]pyrazole-1,7-dione]	

More lines, now with the values behind:

Structure (SMILES)	ε ([1]; ACN only) [M⁻¹ cm⁻¹]	ε ([1]; ACN:PBS (50:50 v/v)) [M⁻¹ cm⁻¹]	Q.Y. ([2]; ACN only) [%]	Q.Y. ([2]; ACN:PBS (50:50 v/v)) [%]	Stokes shift ([3]; ACN only) [nm]	Stokes shift ([3]; ACN:PBS (50:50 v/v)) [nm]	Abs. λabs ([4]; ACN only) [nm]	Abs. λabs ([4]; ACN:PBS (50:50 v/v)) [nm]	Molar Absorptivity (ε) [1, 6] [M⁻¹ cm⁻¹]	Molar Absorptivity (ε) [1, 7] [M⁻¹ cm⁻¹]	Fluorescence QY [2] [%]	Fluorescence quantum yield [2] [%]	Fluorescence quantum yield ([2]; Table S12) [%]	Emission λmax [3, 8] [nm]	Stokes shift ([3]; ACN/PBS buffer (1:1 v/v)) [nm]	Stokes shift ([3]; in ACN) [nm]	Absorbance λmax ([4]; 25 μM in ACN) [nm]	Absorbance λmax [4, 8] [nm]	also measured
Cc1c(C)n2c(/C=C/c3ccc(NC(=O)OC(C)(C)C)cc3)c(C)c(=O)n2c1=O [Compound 7i, tert-butyl (E)-(4-(2-(2,5,6-trimethyl-1,7-dioxo-1H,7H-pyrazolo[1,2-a]pyrazol-3-yl)vinyl)phenyl)carbamate]									34826	37555	3.4	3.4	3.4	505	149	142	348	356	maximum emission wavelength (λem) ([3]; 50:50 ACN/PBS, excitation at λabs): 583 nm; Absorbance Wavelength ([4]; Table 11): 354 nm
Cc1c(C)n2c(/C=C/c3ccc(N=[N+]=[N-])cc3)c(C)c(=O)n2c1=O [Compound 7d, (E)-3-(4-azidostyryl)-2,5,6-trimethyl-1H,7H-pyrazolo[1,2-a]pyrazole-1,7-dione]									27699	36055	1.3	1.5		502	152	101	339	350	
COc1ccc(/C=C/c2c(C)c(=O)n3c(=O)c(C)c(C)n23)cc1 [Compound 7g, (E)-3-(4-methoxystyryl)-2,5,6-trimethyl-1H,7H-pyrazolo[1,2-a]pyrazole-1,7-dione]									25659	34554	3.3	3.5	3.5	504	156	146	342	348	Fluorescence Lifetime ([5]; ACN/PBS buffer (1:1 v/v)): 1.31 ns; Lifetime ([5]; Table 4): 1.31 ± 0.004 ns; Lifetime ([5]; Table S13): 1.31 ± 0.004 ns; Absorbance Wavelength ([4]; Table S14): 348 nm
Cc1c(C)n2c(/C=C/c3ccc([N+](=O)[O-])cc3)c(C)c(=O)n2c1=O [Compound 7a, (E)-2,3,6-trimethyl-5-(4-nitrostyryl)-1H,7H-pyrazolo[1,2-a]pyrazole-1,7-dione]									36955	37871	0.1	0.2	0.2	468	133	100	332	335	fluorescence quantum yield (QY) ([2]; in ACN/PBS): essentially non-fluorescent; Emission λmax ([3]; 25 μM in ACN): 432 nm; Emission λem ([3]; 25 μM in ACN, Table S12): 432 nm; λabs ([4]; ACN/PBS): 335 nm; Absorbance Wavelength ([4]; Table 11): 335 nm; Absorbance Wavelength ([4]; Table S14): 335 nm
